Experimental findings from patent publication US8877734B2, “Seleny-methyluracil compounds, radiosensitizer and pharmaceutical composition using them” (Kongju National University Industry-University Cooperation …, priority 2010, dated 2014) are described below.

The data set has as its system Human lung cancer cell line H460. Nature of the data set: Cytotoxicity test on cancer cells (water-soluble tetrazolium salt colorimetric assay). Format: cell-based. Particulars: for IC50: Homo sapiens, NCI-H460, H460 cells, compound alone without radiation, after a lapse of 72 hours, read-out: IC50 value, the concentration where 50% cells are killed; for cytotoxic effect when applied alone: cancer cell line H460, without the combined radiation treatment. As for the experimental part: Human lung cancer cell line H460 was used in the present test. Firstly, the H460 cell line was cultured in RPMI 1640 medium with 100 U/mL of penicillin, […] of streptomycin and 10% FBS, under the condition of 37° C. and 5% CO2 atmosphere. The cultured cells were placed on a 96-well-plate at the initial cell density of about 2×10^3 cells. In about 24 hours, the cells on the 96-well-plate were treated with the compound 1 and the compound 7 at a designated concentration for 48 hours. The relative cell viability was quantitatively determined by a colorimetric assay using a water-soluble tetrazolium salt. Optical density at 450 nm was measured by an automatic micro plate reader. The results were represented in FIGS. 1 and 2 in the drawings attached to the present specification. As shown in the test example 1, FIG. 1 and FIG. 2, the lung cancer cell line (H460) was treated with the compound 1 (MeSe-T), then after a lapse of 72 hours, IC50 value thereof, that is the concentration where 50% cells are killed, were about 100 μM.

For the compound `O=c1[nH]c(=O)n([C@H]2CC(O)[C@@H](CO)O2)cc1C[Se]c1ccccc1` (stereo partly shown) [compound 7, 5-phenylselenyl-methyl-2′-deoxy uridine], the IC50 is approximately 500 µM and the “cytotoxic effect when applied alone” value is recorded as “weak cytotoxic effect”.
The corresponding values for `C[Se]Cc1cn([C@H]2CC(O)[C@@H](CO)O2)c(=O)[nH]c1=O` (stereo partly shown) [compound 1, 5-methylselenyl-methyl-2′-deoxy uridine] are approximately 100 µM and “weak cytotoxic effect”.
